{"source": "patent US20060246124A1", "about": "“Methods of treating cancer with lipid-based platinum compound formulations administered intraperitoneally” (priority 2004, published 2006)", "key": {"[1]": {"experiment": "Pharmacokinetics and organ distribution (Part II), platinum by ICP-MS", "format": "in vivo, mice", "settings": "ip", "method": "Sixty ICR mice (female, 7 weeks old) were divided into 4 groups. […] At each designed time point, three to four mice were anaesthetized with 70 mg/kg of Nembutal ip (e.g., 3, 20, and 40 min, and 2, 8, 24, 48, and 72 h). […] Organs including duodenum, kidney, liver, lung, and spleen were resected from the mice. The blood and organ samples were homogenized in distilled water (4-fold of the sample weight) and digested with nitric acid. The platinum concentration in each sample was measured by Inductively Coupled Plasma-Mass Spectrometer (ICP-MS). The pharmacokinetics profiles (FIGS. 3-7, all Y-axes are concentration of μg platinum in one gram of tissue or fluid per mg of injected dose) and parameters (Tables 3 and 4) of each formulation were simulated and calculated."}, "L1210 tumor cells": {"test_system": "L1210 tumor cells", "experiment": "In vivo antitumor activity in Murine L1210 tumor model (ascitic L1210 leukemia), ip administration", "settings": "L1210, B6D2F1 mice", "method": "The test articles and materials are presented below in Table 5.\nDay 0, inoculate 6 groups of 5 male mice and 1 group of 9 male control animals with one million viable L1210 cells per mouse by ip injection. • 2. […] Each dose level represents one group of five mice. […] Control group contains 9 untreated mice.\n3. Mice were monitored daily for deaths and or signs of clinical illness. The date of euthanasia was recorded for the purpose of experimental end-points. A total of 39 mice divided into 7 groups were studied. At the end point survival was assessed and expressed as % T/C (percent median survival of treated group: median survival of control group.)"}, "mice": {"test_system": "mice", "experiment": "Maximum tolerated dose (MTD), single bolus ip injection", "format": "in vivo"}, "L1210 cells": {"test_system": "L1210 cells", "experiment": "Survival of mice with implanted L1210 tumor cells: cyclic temperature vs non cyclic temperature cisplatin liposomes", "format": "in vivo", "settings": "single bolus ip 6 mg/kg on day 5, L1210, DBA/2 mice", "method": "DPPC (3.0 g) and cholesterol (1.2 g) were co-dissolved in 20 mL of ethanol. • 2.\nFemale DBA/2 mice (Charles Rivers) were used. Thirty (30) mice were injected with 2×10^6 L1210 cells ip on Day 0. On day 1, the mice were weighed and randomized into 3 groups of 10 mice. […] Survival was monitored. Mice were weighed daily after day 10. Mice that lost 20% or greater of their starting weight were euthanized by CO2 inhalation. The date of their death was recorded on data sheets. Median survival was calculated by Prism GraphPad."}, "stage III ovarian cancer": {"test_system": "stage III ovarian cancer", "settings": "ip, patients with stage III ovarian cancer and residual tumor masses of 2 cm or less; cited from earlier work"}, "[2]": {"settings": "ip dose 3 mg/kg (1 mg/kg on days 3, 7, 11)"}, "[3]": {"settings": "ip dose 4.5 mg/kg ([…] on days 3, 7, 11)"}}}
{"molecule": "N.N.[Cl][Pt][Cl]", "note": "[Cisplatin, cis-diamine-dichloroplatinum (II)]", "values": [{"measurement": "Circulation AUC", "setting": "[1]; blood, normalised to injected dose", "value": 7.08, "unit": "µg·h/g/µg"}, {"measurement": "Organ AUC, Duodenum", "setting": "[1]; duodenum", "value": 8.32, "unit": "µg·h/g/µg"}, {"measurement": "Organ AUC, Heart", "setting": "[1]; heart", "value": 2.67, "unit": "µg·h/g/µg"}, {"measurement": "Organ AUC, Kidney", "setting": "[1]; kidney", "value": 8.61, "unit": "µg·h/g/µg"}, {"measurement": "Organ Cmax, Kidney", "setting": "[1]; kidney", "value": 0.46, "unit": "µg/g/µg"}, {"measurement": "Organ AUC, Liver", "setting": "[1]; liver", "value": 28.99, "unit": "µg·h/g/µg"}, {"measurement": "Organ Cmax, Liver", "setting": "[1]; liver", "value": 0.71, "unit": "µg/g/µg"}, {"measurement": "Organ AUC, Lung", "setting": "[1]; lung", "value": 29.00, "unit": "µg·h/g/µg"}, {"measurement": "Organ Cmax, Lung", "setting": "[1]; lung", "value": 1.61, "unit": "µg/g/µg"}, {"measurement": "Organ AUC, Spleen", "setting": "[1]; spleen", "value": 10.45, "unit": "µg·h/g/µg"}, {"measurement": "% T/C", "setting": "L1210 tumor cells; [2]", "value": 196, "unit": "%"}, {"measurement": "Median survival", "setting": "L1210 tumor cells; [2]", "value": 26.5, "unit": "days"}, {"measurement": "% T/C", "setting": "L1210 tumor cells; [3]", "value": 218, "unit": "%"}, {"measurement": "Median survival", "setting": "L1210 tumor cells; [3]", "value": 29.5, "unit": "days"}, {"measurement": "MTD", "setting": "mice", "value": 9, "unit": "mg/kg"}, {"measurement": "Median survival", "setting": "L1210 cells", "value": 19.5, "unit": "days"}, {"measurement": "survival compared with iv cisplatin", "setting": "stage III ovarian cancer", "value": "significantly improves survival"}]}
